In ChEMBL document CHEMBL1201862, “PubChem BioAssay data set” (2004):
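Interpolation was linear, between the two tested concentrations surrounding the appropriate level; five concentrations were tested over 48 hours in 96-well plates. GI50 marks 50% less growth.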 The source made the active and inactive calls. No stated cut-off is given here; in the data, active = GI50 up to about 1.1 µM and inactive = higher.

Key:
Test in all cases: growth of human tumour cells (NCI), 48 h
[1] = test system: T47D
[2] = test system: NCI-H460
[3] = test system: RXF 393
[4] = test system: OVCAR-4
[5] = test system: SNB-75
[6] = test system: CAKI-1
[7] = test system: SK-MEL-5
[8] = test system: EKVX
[9] = test system: UO-31
[10] = test system: 786-0
[11] = test system: BT-549
[12] = test system: OVCAR-8
[13] = test system: SN12C
[14] = test system: SF-268
[15] = test system: NCI-H226
[16] = test system: OVCAR-3
[17] = test system: UACC-257
[18] = test system: SK-OV-3
[19] = test system: LOX IMVI
[20] = test system: IGROV-1
[21] = test system: COLO 205
[22] = test system: NCI/ADR-RES
[23] = test system: SF-295
[24] = test system: A498
[25] = test system: DU-145
[26] = test system: SNB-19
[27] = test system: ACHN
[28] = test system: MDA-MB-231
[29] = test system: M14
[30] = test system: SW-620
[31] = test system: RPMI-8226
[32] = test system: OVCAR-5
[33] = test system: HCT-116
[34] = test system: KM12
[35] = test system: HCT-15
[36] = test system: U-251
[37] = test system: A549
[38] = test system: NCI-H23
[39] = test system: NCI-H522
[40] = test system: HT-29
[41] = test system: HOP-62
[42] = test system: Malme-3M
[43] = test system: HOP-92
[44] = test system: MDA-MB-435
[45] = test system: SK-MEL-28
[46] = test system: SF-539
[47] = test system: K562
[48] = test system: TK-10
[49] = test system: MOLT-4
[50] = test system: MCF7
[51] = test system: HCC 2998
[52] = test system: HL-60
[53] = test system: SK-MEL-2
[54] = test system: PC-3
[55] = test system: SR
[56] = test system: UACC-62
[57] = test system: CCRF-CEM
[58] = test system: MDA-N
[59] = test system: Hs-578T

COC(=O)C1=C(CCC[C@H](C)O[Si](C)(C)C(C)(C)C)NC(=O)N2[C@@H](CCO)CC[C@H]12
GI50 [1]: 11.6 µM (inactive) | GI50 [2]: 20.3 µM (inactive) | GI50 [3]: 12.4 µM (inactive) | GI50 [4]: 16.5 µM (inactive) | GI50 [5]: 15.7 µM (inactive) | GI50 [6]: 17.2 µM (inactive) | GI50 [7]: 7.82 µM (inactive) | GI50 [8]: 12.4 µM (inactive) | GI50 [9]: 15.6 µM (inactive) | GI50 [10]: 14.5 µM (inactive) | GI50 [11]: 15 µM (inactive) | GI50 [12]: 15.5 µM (inactive) | GI50 [13]: 15 µM (inactive) | GI50 [14]: 14.6 µM (inactive) | GI50 [15]: 14.6 µM (inactive) | GI50 [16]: 13.3 µM (inactive) | GI50 [17]: 11.8 µM (inactive) | GI50 [18]: 15.8 µM (inactive) | GI50 [19]: 16.9 µM (inactive) | GI50 [20]: 15.8 µM (inactive) | GI50 [21]: 17.6 µM (inactive) | GI50 [22]: 13.9 µM (inactive) | GI50 [23]: 11.7 µM (inactive) | GI50 [24]: 16.6 µM (inactive) | GI50 [25]: 19.1 µM (inactive) | GI50 [26]: 15.2 µM (inactive) | GI50 [27]: 16.2 µM (inactive) | GI50 [28]: 16.2 µM (inactive) | GI50 [29]: 16.3 µM (inactive) | GI50 [30]: 20.1 µM (inactive) | GI50 [31]: 14.9 µM (inactive) | GI50 [32]: 19.4 µM (inactive) | GI50 [33]: 4.18 µM (inactive) | GI50 [34]: 18.3 µM (inactive) | GI50 [35]: 15 µM | GI50 [36]: 15.5 µM (inactive) | GI50 [37]: 12.3 µM (inactive) | GI50 [38]: 13.2 µM (inactive) | GI50 [39]: 5.71 µM (inactive) | GI50 [40]: 15.4 µM (inactive) | GI50 [41]: 14.1 µM (inactive) | GI50 [42]: 12.5 µM (inactive) | GI50 [43]: 14.2 µM (inactive) | GI50 [44]: 17.7 µM (inactive) | GI50 [45]: 18.5 µM (inactive) | GI50 [46]: 16.7 µM (inactive) | GI50 [47]: 6.92 µM (inactive) | GI50 [48]: 18.6 µM (inactive) | GI50 [49]: 18.6 µM (inactive)

Cc1nc(-c2cc3c(ccc4ccccc43)oc2=O)cc2c1c(=O)oc1ccc3ccccc3c12
GI50 [1]: > 100 µM (inactive) | GI50 [50]: > 100 µM (inactive) | GI50 [2]: > 100 µM (inactive) | GI50 [3]: > 100 µM (inactive) | GI50 [4]: > 100 µM (inactive) | GI50 [51]: > 100 µM (inactive) | GI50 [6]: > 100 µM (inactive) | GI50 [7]: > 100 µM (inactive) | GI50 [8]: > 100 µM (inactive) | GI50 [9]: > 100 µM (inactive) | GI50 [10]: > 100 µM (inactive) | GI50 [11]: > 100 µM (inactive) | GI50 [12]: > 100 µM (inactive) | GI50 [52]: > 100 µM (inactive) | GI50 [14]: > 100 µM (inactive) | GI50 [16]: > 100 µM (inactive) | GI50 [17]: > 100 µM (inactive) | GI50 [18]: > 100 µM (inactive) | GI50 [19]: > 100 µM (inactive) | GI50 [20]: > 100 µM (inactive) | GI50 [21]: > 100 µM (inactive) | GI50 [22]: > 100 µM (inactive) | GI50 [23]: > 100 µM (inactive) | GI50 [24]: > 100 µM (inactive) | GI50 [25]: > 100 µM (inactive) | GI50 [26]: > 100 µM (inactive) | GI50 [27]: > 100 µM (inactive) | GI50 [28]: > 100 µM (inactive) | GI50 [53]: > 100 µM (inactive) | GI50 [29]: > 100 µM (inactive) | GI50 [30]: > 100 µM (inactive) | GI50 [32]: > 100 µM (inactive) | GI50 [33]: > 100 µM (inactive) | GI50 [54]: > 100 µM (inactive) | GI50 [34]: > 100 µM (inactive) | GI50 [55]: > 100 µM (inactive) | GI50 [35]: > 100 µM | GI50 [36]: > 100 µM (inactive) | GI50 [37]: > 100 µM (inactive) | GI50 [38]: > 100 µM (inactive) | GI50 [39]: > 100 µM (inactive) | GI50 [40]: > 100 µM (inactive) | GI50 [41]: > 100 µM (inactive) | GI50 [42]: > 100 µM (inactive) | GI50 [56]: > 100 µM (inactive) | GI50 [43]: > 100 µM (inactive) | GI50 [57]: > 100 µM (inactive) | GI50 [44]: > 100 µM (inactive) | GI50 [45]: > 100 µM (inactive) | GI50 [46]: > 100 µM (inactive) | GI50 [47]: > 100 µM (inactive) | GI50 [48]: > 100 µM (inactive) | GI50 [49]: > 100 µM (inactive)

CCC1=C(c2ccc(OC)cc2)CC[C@]2(CCNC2=O)[C@@H]1C
GI50 [1]: 32.4 µM (inactive) | GI50 [50]: 21.9 µM (inactive) | GI50 [2]: 28.2 µM (inactive) | GI50 [3]: 55.2 µM (inactive) | GI50 [4]: 22 µM (inactive) | GI50 [5]: 27.4 µM (inactive) | GI50 [51]: 28.4 µM (inactive) | GI50 [6]: 48.3 µM (inactive) | GI50 [7]: 16.8 µM (inactive) | GI50 [8]: 28.1 µM (inactive) | GI50 [9]: 21.4 µM (inactive) | GI50 [10]: 42.5 µM (inactive) | GI50 [12]: 42.4 µM (inactive) | GI50 [13]: 37.8 µM (inactive) | GI50 [58]: 22.5 µM (inactive) | GI50 [52]: 51.3 µM (inactive) | GI50 [14]: 33.1 µM (inactive) | GI50 [15]: 37.9 µM (inactive) | GI50 [16]: 22.7 µM (inactive) | GI50 [17]: 23.7 µM (inactive) | GI50 [18]: 45.8 µM (inactive) | GI50 [19]: 25.1 µM (inactive) | GI50 [20]: 40.3 µM (inactive) | GI50 [21]: 14.4 µM (inactive) | GI50 [22]: 31.2 µM (inactive) | GI50 [23]: 30 µM (inactive) | GI50 [24]: 31.3 µM (inactive) | GI50 [25]: 33.3 µM (inactive) | GI50 [26]: 34.6 µM (inactive) | GI50 [27]: 25.6 µM (inactive) | GI50 [28]: 39.1 µM (inactive) | GI50 [53]: 21.3 µM (inactive) | GI50 [29]: 26.4 µM (inactive) | GI50 [30]: 44.2 µM (inactive) | GI50 [31]: 16.3 µM (inactive) | GI50 [32]: 31.1 µM (inactive) | GI50 [33]: 23.6 µM (inactive) | GI50 [54]: 26.4 µM (inactive) | GI50 [34]: 32 µM (inactive) | GI50 [55]: 24.2 µM (inactive) | GI50 [35]: 28.7 µM | GI50 [36]: 29.9 µM (inactive) | GI50 [37]: 37.6 µM (inactive) | GI50 [38]: 37.4 µM (inactive) | GI50 [39]: 18.3 µM (inactive) | GI50 [40]: 23.2 µM (inactive) | GI50 [41]: 51.2 µM (inactive) | GI50 [42]: 25.8 µM (inactive) | GI50 [56]: 24.4 µM (inactive) | GI50 [43]: 40.7 µM (inactive) | GI50 [57]: 24.8 µM (inactive) | GI50 [59]: 24.5 µM (inactive) | GI50 [44]: 19.6 µM (inactive) | GI50 [45]: 30.5 µM (inactive) | GI50 [46]: 28.2 µM (inactive) | GI50 [47]: 21.5 µM (inactive) | GI50 [48]: 35 µM (inactive) | GI50 [49]: 15.8 µM (inactive)
